Test [1] deals with T1, human prolyl-tRNA synthetase (ProRS domain of GluProRS) (Homo sapiens, UniProt P07814).
T1 construct: gene EPRS1; recombinant human ProRS
T1 sequence (P07814 998-1512): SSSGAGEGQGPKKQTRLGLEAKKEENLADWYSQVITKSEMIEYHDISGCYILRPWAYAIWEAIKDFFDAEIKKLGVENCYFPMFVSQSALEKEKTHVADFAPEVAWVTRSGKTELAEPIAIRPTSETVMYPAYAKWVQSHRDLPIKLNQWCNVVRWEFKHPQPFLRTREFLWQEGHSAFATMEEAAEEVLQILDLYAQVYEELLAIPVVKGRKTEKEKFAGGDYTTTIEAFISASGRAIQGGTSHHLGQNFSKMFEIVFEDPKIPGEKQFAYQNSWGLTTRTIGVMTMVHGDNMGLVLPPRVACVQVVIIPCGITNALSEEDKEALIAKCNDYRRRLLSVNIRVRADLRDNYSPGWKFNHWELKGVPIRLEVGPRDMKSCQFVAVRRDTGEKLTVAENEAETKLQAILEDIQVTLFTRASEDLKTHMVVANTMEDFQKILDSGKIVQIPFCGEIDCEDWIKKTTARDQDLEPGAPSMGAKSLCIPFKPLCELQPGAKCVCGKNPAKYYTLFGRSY
Kind of test: TR-FRET ligand displacement with […] ATP. The class given is binding. A general note: TR-FRET usually uses a lanthanide donor and a delayed reading to cut background.

Test [2] addresses T1, human prolyl-tRNA synthetase (ProRS domain of GluProRS). Kind of test: TR-FRET ligand displacement with […] proline; crystal structure with proline. The class given is binding.

Each structure is given as a SMILES string.

A word on the Kd: it is the concentration at which binding is half-saturated. Read a high Kd as weaker binding.

Take `O=C(CC1NCCCC1O)Cn1cnc2cc(Br)c(Cl)cc2c1=O` (centres unmarked) [HFG, Halofuginone]: the affinity in test [1], expressed as Kd, was 0.19 nM.
Turning to `O=C(NC1Cc2ccccc2C1)c1nccnc1NC(=O)N1CCCCC1` [NCP26], the Kd in test [2] was determined as 0.35 nM.

These data come from paper PMC9834298, “Prolyl-tRNA synthetase as a novel therapeutic target in multiple myeloma” (Blood Cancer Journal, 2023).
